Measured values published in ChEMBL document CHEMBL5512659, “Structure optimizing of flavonoids against both MRSA and VRE” (Eur J Med Chem, 2024).
≈ marks a conversion by molar mass, not a printed value. Calls of active or inactive are those of the source. The calls are words filed in the database; no cut-off is given here.

Legend:
[1] = test system: Staphylococcus aureus; assay: Antibacterial activity against methicillin resistant Staphylococcus aureus clinical isolate 003; type: functional
[2] = test system: Enterococcus faecalis; assay: Antibacterial activity against Enterococcus faecalis clinical isolate 13; type: functional
[3] = test system: Enterococcus faecalis; assay: Antibacterial activity against multidrug resistant Enterococcus faecalis ATCC 51299 in presence of 140 mM/L Na+ (reference value: 32 ug/ml); type: functional
[4] = test system: Staphylococcus aureus; assay: Antibacterial activity against methicillin resistant Staphylococcus aureus clinical isolate 003 in presence of 4.5 mM/L K+ (reference value: 1 ug/ml); type: functional
[5] = test system: Enterococcus faecalis; assay: Antibacterial activity against multidrug resistant Enterococcus faecalis ATCC 51299 in presence of 4.5 mM/L K+ (reference value: 32 ug/ml); type: functional
[6] = test system: Enterococcus faecalis; assay: Antibacterial activity against multidrug resistant Enterococcus faecalis ATCC 51299 in presence of 2.5 mM/L Ca+ (reference value: 32 ug/ml); type: functional
[7] = test system: Enterococcus faecalis; assay: Antibacterial activity against multidrug resistant Enterococcus faecalis ATCC 51299 in presence of 1 mM/L Mg2+ (reference value: 32 ug/ml); type: functional
[8] = test system: Staphylococcus aureus; assay: Antibacterial activity in methicillin resistant Staphylococcus aureus clinical isolate 003 at sub-MIC measured after 20 passages; type: functional, organism-based
[9] = test system: Enterococcus faecalis; assay: Bactericidal activity against multidrug resistant Enterococcus faecalis ATCC 51299 assessed as inhibition of bacterial growth by measuring ratio of MBC to MIC; type: functional
[10] = test system: Enterococcus faecalis; assay: Antibiofilm activity in multidrug resistant Enterococcus faecalis ATCC 51299 assessed as reduction in biofilm density at 0.5 to 4 times MIC measured after 24 hrs by inverted fluorescence microscopic analysis; type: functional, organism-based
[11] = test system: Enterococcus faecalis; assay: Antibacterial activity against multidrug resistant Enterococcus faecalis ATCC 51299 in presence of cardiolipin; type: functional, organism-based
[12] = test system: Cell membrane; assay: Disruption of membrane permeability in multidrug resistant Enterococcus faecalis ATCC 51299 assessed as increase in fluorescence intensity at 4 to 8 times MIC by PI staining based analysis
[13] = test system: Cell membrane; assay: Disruption of membrane permeability in multidrug resistant Enterococcus faecalis ATCC 51299 assessed as protein leakage at 2 to 4 times MIC; type: cell membranes
[14] = test system: Cell membrane; assay: Disruption of membrane permeability in methicillin resistant Staphylococcus aureus clinical isolate 003 assessed as increase in malondialdehyde level
[15] = test system: Cell membrane; assay: Disruption of membrane permeability in multidrug resistant Enterococcus faecalis ATCC 51299 assessed as increase in malondialdehyde level
[16] = test system: Cell membrane; assay: Induction of cell membrane damage in methicillin resistant Staphylococcus aureus clinical isolate 003 assessed as bacterial death at 2 to 4 times MIC by confocal laser scanning microscopy; type: cell membranes
[17] = test system: Staphylococcus aureus; assay: Antibacterial activity against methicillin resistant Staphylococcus aureus clinical isolate 003 in presence of 140 mM/L Na+ (reference value: 0.5 ug/ml); type: functional
[18] = test system: Enterococcus faecalis; assay: Antibacterial activity against multidrug resistant Enterococcus faecalis ATCC 51299 in presence of 140 mM/L Na+ (reference value: 1 ug/ml); type: functional
[19] = test system: Staphylococcus aureus; assay: Antibacterial activity against methicillin resistant Staphylococcus aureus clinical isolate 003 in presence of 4.5 mM/L K+ (reference value: 0.5 ug/ml); type: functional
[20] = test system: Enterococcus faecalis; assay: Antibacterial activity against multidrug resistant Enterococcus faecalis ATCC 51299 in presence of 4.5 mM/L K+ (reference value: 1 ug/ml); type: functional
[21] = test system: Staphylococcus aureus; assay: Antibacterial activity against methicillin resistant Staphylococcus aureus clinical isolate 003 in presence of 2.5 mM/L Ca2+ (reference value: 0.5 ug/ml); type: functional
[22] = test system: Enterococcus faecalis; assay: Antibacterial activity against multidrug resistant Enterococcus faecalis ATCC 51299 in presence of 2.5 mM/L Ca+ (reference value: 1 ug/ml); type: functional
[23] = test system: Enterococcus faecalis; assay: Antibacterial activity against multidrug resistant Enterococcus faecalis ATCC 51299 in presence of 1 mM/L Mg2+ (reference value: 1 ug/ml); type: functional
[24] = test system: Staphylococcus aureus; assay: Antibacterial activity against methicillin resistant Staphylococcus aureus clinical isolate 003 in presence of 2.5 mM/L Ca2+ (reference value: 0.25 ug/ml); type: functional
[25] = Cytotoxicity against human L02 cells assessed as cell viability at 64 ug/ml measured after 48 hrs relative to control; type: toxicity, cell-based; conditions: at 64 µg/mL, read-out: Activity
[26] = Toxicity in Galleria mellonella assessed as survival rate at 1.25 to 10 mg/kg observed after 7 days; type: organism-based; conditions: in vivo, dose 1.25-10 mg/kg, time 7 day
[27] = test system: Staphylococcus aureus; assay: Additive antibacterial activity against methicillin resistant Staphylococcus aureus clinical isolate 003 assessed as fractional inhibitory concentration in presence of adriamycin hydrochloride; type: functional
[28] = test system: Staphylococcus aureus; assay: Additive antibacterial activity against methicillin resistant Staphylococcus aureus clinical isolate 003 assessed as fractional inhibitory concentration in presence of vancomycin; type: functional
[29] = test system: Staphylococcus aureus; assay: Additive antibacterial activity against methicillin resistant Staphylococcus aureus clinical isolate 003 assessed as fractional inhibitory concentration in presence of chloramphenicol; type: functional
[30] = test system: Staphylococcus aureus; assay: Synergistic antibacterial activity against methicillin resistant Staphylococcus aureus clinical isolate 003 assessed as fractional inhibitory concentration in presence of tetracycline; type: functional
[31] = test system: Enterococcus faecalis; assay: Additive antibacterial activity against multidrug resistant Enterococcus faecalis ATCC 51299 assessed as fractional inhibitory concentration in presence of norfloxacin; type: functional
[32] = test system: Enterococcus faecalis; assay: Synergistic antibacterial activity against multidrug resistant Enterococcus faecalis ATCC 51299 assessed as fractional inhibitory concentration in presence of tetracycline; type: functional
[33] = test system: Enterococcus faecalis; assay: Synergistic antibacterial activity against multidrug resistant Enterococcus faecalis ATCC 51299 assessed as fractional inhibitory concentration in presence of ampicillin; type: functional
[34] = test system: Enterococcus faecalis; assay: Synergistic antibacterial activity against multidrug resistant Enterococcus faecalis ATCC 51299 assessed as fractional inhibitory concentration in presence of vancomycin; type: functional
[35] = test system: Staphylococcus aureus; assay: Antibacterial activity against methicillin resistant Staphylococcus aureus clinical isolate 003 infected in cyclophosphamide immunosuppressed mouse model of skin wound infection assessed as wound healing by measuring wound area at 5 mg/kg administered for 7 days and measured on day 8 (reference value: 32.1 […]); type: functional; conditions: time 8 day
[36] = test system: Staphylococcus aureus; assay: Antibacterial activity against methicillin resistant Staphylococcus aureus clinical isolate 003 infected in cyclophosphamide immunosuppressed mouse model of skin wound infection assessed as reduction in bacterial load in wound at 1.25 mg/kg administered for 7 days and measured on day 8 (reference value: 1.6 x 10^8 CFU); type: functional; conditions: time 8 day
[37] = test system: Staphylococcus aureus; assay: Antibacterial activity against methicillin resistant Staphylococcus aureus clinical isolate 003 infected in cyclophosphamide immunosuppressed mouse model of skin wound infection assessed as increase in wound healing by measuring increase in VEGF expression at 1.25 to 5 mg/kg administered for 7 days and measured on day 8 by immunohistochemical analysis; type: functional, organism-based; conditions: dose 1.25-5 mg/kg, time 8.0 day
[38] = test system: Enterococcus faecalis; assay: Antibacterial activity against multidrug resistant Enterococcus faecalis ATCC 51299 infected in cyclophosphamide immunosuppressed mouse model of abdominal infection assessed as eradication of bacterial colonies in spleen at 1.25 to 5 mg/kg measured after 60 hrs relative to control; type: functional; conditions: dose 1.25-5 mg/kg
[39] = test system: Enterococcus faecalis; assay: Antibacterial activity against multidrug resistant Enterococcus faecalis ATCC 51299 infected in cyclophosphamide immunosuppressed mouse model of abdominal infection assessed as eradication of bacterial colonies in ascites at 1.25 to 5 mg/kg measured after 60 hrs relative to control; type: functional; conditions: dose 1.25-5 mg/kg
[40] = test system: Enterococcus faecalis; assay: Antibacterial activity against multidrug resistant Enterococcus faecalis ATCC 51299 infected in cyclophosphamide immunosuppressed mouse model of abdominal infection assessed as reduction in abscess at 1.25 to 5 mg/kg measured after 60 hrs by H and E staining based analysis; type: functional, organism-based; conditions: dose 1.25-5 mg/kg

Row | Structure (SMILES) | MIC [1] [µg/mL] | MIC [2] [µg/mL] | Activity [8] | Ratio [9] | Activity [10] | Activity [11] | Activity [12] | Activity [13] | Activity [14] | Activity [15] | Activity [16] | MIC [18] [µg/mL] | MIC [20] [µg/mL] | MIC [22] [µg/mL] | MIC [23] [µg/mL] | other results
1 | CCCCCCc1c(-c2ccc(OCC(=O)CN[C@H](CCCNC(=N)N)C(=O)OC)cc2OCC(=O)CN[C@H](CCCNC(=N)N)C(=O)OC)oc2cc(OC)cc(O)c2c1=O | 1 (≈ 1.15 µM) | 32 (≈ 36.8 µM) | Active | <4 | Dose-Dependent Effect | inactive | Active | Active | Active | Active | Active |  |  |  |  | MIC [3]: 32 µg/mL; MIC [4]: 2 µg/mL; MIC [5]: 32 µg/mL; MIC [6]: 32 µg/mL; MIC [7]: 32 µg/mL
2 | CCCCCCc1c(-c2ccc(OCCCCN(C)C)cc2OCCCCN(C)C)oc2cc(OC)cc(O)c2c1=O | 0.5 (≈ 0.858 µM) | 1 (≈ 1.72 µM) | Active | <4 | Dose-Dependent Effect | inactive | Active | Active | Active | Active | Active | 1 | 1 | 1 | 1 | MIC [17]: 1 µg/mL; MIC [19]: 0.5 µg/mL; MIC [21]: 1 µg/mL
3 | CCCCCCc1c(-c2ccc(OCCCCNCCCN)cc2OCCCCNCCCN)oc2cc(OC)cc(O)c2c1=O | 0.25 (≈ 0.39 µM) | 0.5 (≈ 0.78 µM) | Active | <4 | Dose-Dependent Effect | inactive | Active | Active | Active | Active | Active | 1 | 1 | 1 | 1 | MIC [24]: 0.25 µg/mL; viability at 48 h, 64 ug/ml [25]: > 50%; survival at 168 h [26]: 100%; fractional inhibitory concentration index (FICI) [27]: 0.75; fractional inhibitory concentration index (FICI) [28]: 1; fractional inhibitory concentration index (FICI) [29]: 1; fractional inhibitory concentration index (FICI) [30]: 0.375; fractional inhibitory concentration index (FICI) [31]: 1; fractional inhibitory concentration index (FICI) [32]: 0.25; fractional inhibitory concentration index (FICI) [33]: 0.375; fractional inhibitory concentration index (FICI) [34]: 0.375; Activity [35]: 2.1 mm²; Activity [36]: 9.2 10^6CFU; Activity [37]: Active; Activity [38]: 95.5%; Activity [39]: 92.2%; Activity [40]: Active
